Like-named read-outs stand apart in the source and are kept apart here.
Columns and labels:
[1] = test system: phospho-Aurora kinase A (T288); assay: Immunofluorescence / western blot of Aurora A activity marker in SGC-7901; assay type: cell-based, human
Procedure: Cell lysate was prepared in RIPA buffer and quantified by the bicinchoninic acid (BCA) method (Pierce, Rockford, IL). Thirty micrograms of protein per sample was loaded onto a 4∼12% NuPAGE® Novex SDS gel (Invitrogen). The protein was transferred by an iBlot® dry blotting device (Invitrogen) onto nitrocellulose membranes. After blocking nonspecific binding with TBS/Tween20 (0.1%) (TBS/T) containing 5% non-fat milk for 1 h at room temperature, the membrane was incubated in phospho-Aurora A (Thr288) (C39D8) rabbit monoclonal antibody (Cell Signaling Technology, CST #3079, Beverly, MA) or phospho-Histone H3 (Ser10) rabbit polyclonal antibody (CST#9701) (1∶1000 in TBS/T containing 3% bovine serum albumin (BSA), and gently shaken at 4°C overnight. The membrane was washed with TBS/T three times to remove the unbound antibody, then incubated with the secondary antibody (HRP-conjugated goat anti-mouse IgG or goat anti-rabbit IgG, 1∶10000, KangChen Biotech, Shanghai, China) for 1 h at room temperature, respectively. Protein bands were visualized with an enhanced chemiluminescence (ECL) kit (Pierce, Rockford, IL). […]

BEL-7402 cells = assay: Cell cycle distribution by flow cytometry; assay type: cell-based, human; conditions: BEL-7402, 10 µM
Procedure: (§1) DNA content was measured with a FACS-Calibur cytometer (Becton Dickinson, San Jose, CA) and cell cycle distribution was calculated as described previously.

SGC-7901 cells = assay: Cell cycle distribution by flow cytometry; assay type: cell-based, human; conditions: SGC-7901, 10 µM
Procedure: as §1

HCCLM3 xenograft = assay: Xenograft efficacy study; assay type: in vivo, BALB/C nu/nu nude mice; conditions: HCCLM3, 12.5 mg/kg twice a day per oral gavage
Procedure: (§2) Tumor cells were inoculated into the right flank of BALB/C nu/nu female nude mice (5∼6 weeks, 16∼18 g, obtained from Sino-British SIPPR/BK Lab. Animal Ltd, Shanghai, China) at optimal density based on our in-house validation study. After the tumor was established and reached 100∼150 mm^3, the mice were randomized into ten mice per group and received treatment according to the schedule. The tumor growth was recorded three times a week with the measurement of length (L) and width (W) by caliper, and calculated as tumor volume (TV, mm^3) = 0.5*L*W*W (mm). […] The tumor regression of individual mouse was defined - the tumor volume at the end was less than the tumor volume when treatment was initiated.

BGC-823 xenograft = assay: Xenograft efficacy study; assay type: in vivo, BALB/C nu/nu nude mice
Procedure: as §2

GC and HCC xenografts = assay: Panel of GC and HCC xenografts, comparison with sorafenib; assay type: in vivo, BALB/C nu/nu nude mice
Procedure: as §2

phospho-Aurora A (T288) = assay: Immunohistochemistry of BEL-7402 tumors, Aurora kinase A activity marker; assay type: in vivo, BALB/C nu/nu nude mice; conditions: BEL-7402 tumors from efficacy study
Procedure: The 8 µm paraffin embedded tumor tissue slides prepared from tumor of in vivo efficacy studies were heated in a dry oven at 60°C for 1 hour, then deparaffinized and hydrolyzed by Leica autostainer XL ST5010 at room temperature. Antigen retrieval was carried out at 95∼99°C in citrate buffer (0.01 M, pH 6.0) heated by a medical microwave at 92–98°C for 5 min, then cooled down to room temperature. Then peroxidase-blocking reagent (DAKO, DK-2600, Glostrup Denmark) was applied to quench the endogenous peroxidase. The slides were incubated in blocking serum for 20 min, then covered by 100 µL phospho-Aurora A (Thr288) (C39D8) rabbit mAb (CST #3079, 1∶200 in TBS/T) or rabbit anti-human CD31 polyclonal antibody (Santa Cruz Biotech, sc-8306, Santa Cruz, CA, USA; 1∶200 in TBS/T) at 4°C overnight, then incubated in 100 µL DAKO Envision+/HRP, rabbit/mouse after being washed thoroughly with TBS. One hundred micro liters of substrate-chromogenic solution (DAB) were applied to the slides and incubated at room temperature for 10 min. The slides were rinsed gently with tap water for 15 min. Counterstain and dehydration was performed by XL ST5010 at room temperature. Finally, the slides were mounted with Permount mounting medium (Fisher Scientific, Miami, FL).

[2] = Plasma and tumor exposure at steady state in xenograft-bearing mice; assay type: in vivo, nude mice; set-up: Tumor AUC @ SS: unit not given here; conditions: for AUC: nude, mouse, po, read-out: Plasma AUC @ SS
Source text: Supplementary file pone.0065264.s004.doc: Table S3 ED60/90 estimation from the R1498 exposure at steady state in tumors. The exposure in plasma and tumor at steady state were plot against tumor growth inhibiton rate to estimate the ED60/E90 doses. (DOC) Click here for additional data file.

[3] = test system: cyclin-dependent kinase 2 (CDK2); set-up: method as in PMID 20832307; conditions: previously identified; cited from earlier work

SMILES: COc1ccc2c(c1)C(c1ccccc1Cl)=Nc1c(n[nH]c1C)N2 [R1498]
- Aurora A T288 green foci in mitotic cells (immunofluorescence) ([1]; SGC-7901, 5 µM, 24 h): became weaker or disappeared
- phosphorylation of phospho-Aurora kinase A (T288) (western blot) ([1]; SGC-7901 synchronized with nocodazole, various concentrations, acute treatment): decreased in a concentration-dependent manner
- cells with >4N DNA content (BEL-7402 cells; control 6.7%): 17.6%
- cells in G2/M phases (BEL-7402 cells; control 25.6%): 57.0%
- cells with >4N DNA content (polyploid cells) (SGC-7901 cells; control 3.1%): 21.6%
- cells in G2/M phases (SGC-7901 cells; control 25.2%): 75.5%
- Final TGI% (HCCLM3 xenograft; day of study termination): 81%
- Body weight changes% (HCCLM3 xenograft; before vs after treatment): 15.3%
- Tumor Regression (HCCLM3 xenograft; mice with regression/group): 0/10
- Final TGI% (BGC-823 xenograft; BGC-823, 25 mg/kg twice a day per oral gavage, day of study termination (Table S2)): 94%
- Body weight changes% (BGC-823 xenograft; BGC-823, 25 mg/kg twice a day per oral gavage, before vs after treatment): 2%
- Tumor Regression (BGC-823 xenograft; BGC-823, 25 mg/kg twice a day per oral gavage, mice with regression/group): 0/10
- Final TGI% (BGC-823 xenograft; BGC-823, 6.25 mpk, bid, PO): 78%
- Final TGI% (BGC-823 xenograft; BGC-823, 12.5 mpk, bid, PO): 88%
- Final TGI% (BGC-823 xenograft; BGC-823, 25 mpk, bid, PO (Table S3)): 94%
- tumor growth inhibition (GC and HCC xenografts; all test models (GC and HCC xenografts)): > 80%
- TGI% over TGI% of sorafenib (GC and HCC xenografts; gastric cancer xenografts, same schedule): 2–12%
- TGI% more than TGI% of sorafenib (GC and HCC xenografts; hepatocarcinoma xenografts, same schedule): 10–19%
- phospho-Aurora A (T288) staining in tumors (phospho-Aurora A (T288)): weaker staining
- Tumor AUC @ SS ([2]; BEL-7402, 3.125 mpk, bid, PO): 2219
- Tumor AUC @ SS ([2]; BEL-7402, 6.25 mpk, bid, PO): 6713
- Tumor AUC @ SS ([2]; BEL-7402, 12.5 mpk, bid, PO): 23886
- Tumor AUC @ SS ([2]; BEL-7404, 3.125 mpk, bid, PO): 9251
- Tumor AUC @ SS ([2]; BEL-7404, 6.25 mpk, bid, PO): 17558
- Tumor AUC @ SS ([2]; BEL-7404, 12.5 mpk, bid, PO): 37142
- Tumor AUC @ SS ([2]; BEL-7404, 12.5 mpk, single dose, PO (PK arm)): 30996
- Tumor AUC @ SS ([2]; BGC-823 (model cell empty, from line above), 25 mpk, single dose, PO (PK arm)): 49597
- Tumor AUC @ SS ([2]; BGC-823, 6.25 mpk, bid, PO): 9906
- Tumor AUC @ SS ([2]; BGC-823, 12.5 mpk, bid, PO): 39971
- Tumor AUC @ SS ([2]; BGC-823, 25 mpk, bid, PO): 70897
- Tumor AUC @ SS ([2]; SGC-7901 (model cell empty, from line above), 25 mpk, single dose, PO (PK arm)): 147592
- Tumor AUC @ SS ([2]; SGC-7901, 6.25 mpk, bid, PO): 25249
- Tumor AUC @ SS ([2]; SGC-7901, 12.5 mpk, bid, PO): 48130
- Tumor AUC @ SS ([2]; SGC-7901, 25 mpk, bid, PO): 78767
- AUC ([2]; in vivo, 12.5 mg/kg, BEL-7402, 12.5 mpk, bid, PO): 26100 ng·h/mL
- AUC ([2]; in vivo, 12.5 mg/kg, BEL-7404, 12.5 mpk, bid, PO): 21600 ng·h/mL
- AUC ([2]; in vivo, 12.5 mg/kg, BEL-7404, 12.5 mpk, single dose, PO (PK arm)): 15200 ng·h/mL
- AUC ([2]; in vivo, 12.5 mg/kg, BGC-823, 12.5 mpk, bid, PO): 31100 ng·h/mL
- AUC ([2]; in vivo, 12.5 mg/kg, SGC-7901, 12.5 mpk, bid, PO): 26900 ng·h/mL
- AUC ([2]; plasma, 3.125 mg/kg, BEL-7402, 3.125 mpk, bid, PO): 5380 ng·h/mL
- AUC ([2]; plasma, 3.125 mg/kg, BEL-7404, 3.125 mpk, bid, PO): 3560 ng·h/mL
- AUC ([2]; plasma, 6.25 mg/kg, BEL-7402, 6.25 mpk, bid, PO): 12600 ng·h/mL
- AUC ([2]; plasma, 6.25 mg/kg, BEL-7404, 6.25 mpk, bid, PO): 6560 ng·h/mL
- AUC ([2]; plasma, 6.25 mg/kg, BGC-823, 6.25 mpk, bid, PO): 10800 ng·h/mL
- AUC ([2]; plasma, 6.25 mg/kg, SGC-7901, 6.25 mpk, bid, PO): 11400 ng·h/mL
- AUC ([2]; plasma, 25 mg/kg, BGC-823 (model cell empty, from line above), 25 mpk, single dose, PO (PK arm)): 73300 ng·h/mL
- AUC ([2]; plasma, 25 mg/kg, BGC-823, 25 mpk, bid, PO): 43300 ng·h/mL
- AUC ([2]; plasma, 25 mg/kg, SGC-7901 (model cell empty, from line above), 25 mpk, single dose, PO (PK arm)): 70100 ng·h/mL
- AUC ([2]; plasma, 25 mg/kg, SGC-7901, 25 mpk, bid, PO): 47900 ng·h/mL
- CDK2 inhibition [3]: weak
